Assay results taken from patent US5486516A, “Furopyrimidine derivatives” (DowElanco, priority 1993, dated 1996).

Key:
[1] = test system: Pseudoperonospora cubensis (downy mildew); assay: Plant pathology screen (Test 1), downy mildew on squash; conditions: foliar, read-out: DOWN MDEW control rating
[2] = test system: melon aphids (Aphis gossvpii Glover); assay: Mite/insect screen, melon aphids; type: in vivo; conditions: sprayed leaves; for mortality at 200 ppm / mortality at 400 ppm: Aphis, read-out: MA results (percent mortality); for mortality at 200 ppm: rate 200 ppm
Protocol: (§1) The compounds of Examples were tested for miticidal and insecticidal activity in the following mite/insect screen.
(§2) Each test compound was formulated by dissolving the compound in acetone/alcohol (50:50) mixture containing 23 g of "TOXIMUL R" (sulfonate/nonionic emulsifier blend) and 13 g of "TOXIMUL S" (sulfonate/nonionic emulsifier blend) per liter. These mixtures were then diluted with water to give the indicated concentrations.
(§3) Twospotted spider mites (Tetranychus urticae Koch) and melon aphids (Aphis gossvpii Glover) were introduced on squash cotyledons and allowed to establish on both leaf surfaces. Other plants in the same treatment pot were left uninfested. The leaves were then sprayed with 5 ml of test solution using a DeVilbiss atomizing sprayer at 10 psi. Both surfaces of the leaves were covered until runoff, and then allowed to dry for one hour. Two uninfested leaves were then excised and placed into a Petri dish containing larval southern armyworm (Spodopetra eridania Cramer).
(§4) After standard exposure periods, percent mortality and phytotoxicity were evaluated. […] The following abbreviations are used in Table 3:
MA refers to melon aphids.

[3] = test system: Puccinia recondita tritici (leaf rust); assay: Plant pathology screen (Test 1), leaf rust on wheat; conditions: in Triticum aestivum, foliar, read-out: LEAF RUST control rating
[4] = test system: southern armyworm (Spodopetra eridania Cramer); assay: Mite/insect screen, Southern armyworm; type: in vivo; conditions: sprayed leaves; for mortality at 200 ppm / mortality at 400 ppm: Spodoptera eridania, read-out: SAW results (percent mortality); for mortality at 200 ppm: rate 200 ppm
Protocol: as §1, §2, §3, §4
SAW refers to Southern armyworm

[5] = test system: Southern corn rootworm (Diabrotica undecimpuctata howardi Barber); assay: Mite/insect screen, corn rootworm; type: in vivo; conditions: soil; for mortality at 12 ppm / mortality at 24 ppm: Diabrotica, read-out: CRW results (percent mortality); for mortality at 12 ppm: CRW rate 12.00 ppm
Protocol: as §1, §2
Activity on Southern corn rootworm (Diabrotica undecimpuctata howardi Barber) was evaluated by adding two ml of tap water, a presoaked corn seed, and 15 g of dry sandy soil to a one ounce plastic container. The soil was treated with 1 mL of test solution containing a predetermined concentration of test compound. After six to 12 hours of drying, five 2-3 instar corn rootworm larvae were added to the individual cups, which were then capped and held at 23° C.
as §4
CRW refers to corn rootworm

[6] = test system: Pyricularia oryzae (rice blast); assay: whole plant or invertebrate; type: in vivo; conditions: foliar, read-out: RICE BLAST control rating
[7] = test system: Erysiphe graminis tritici (powdery mildew); assay: Plant pathology screen (Test 1), powdery mildew on wheat; conditions: Blumeria graminis, in Triticum aestivum, foliar, read-out: POWD MDEW control rating
[8] = test system: Botrytis cinerea (gray mold); assay: Plant pathology screen (Test 1), gray mold on grape berries; conditions: read-out: GRAY MOLD control rating
[9] = test system: Twospotted spider mites (Tetranychus urticae Koch); assay: Mite/insect screen, twospotted spider mites; type: in vivo; conditions: sprayed leaves; for mortality at 200 ppm / mortality at 400 ppm: Tetranychus urticae, read-out: SM results (percent mortality); for mortality at 200 ppm: rate 200 ppm
Protocol: as §1, §2, §3, §4
SM refers to twospotted spider mites

| Compound | pest or weed control at 400 µg/mL [1] | mortality at 200 ppm [2] | mortality at 400 ppm ([2]; rate 400 ppm) | pest or weed control at 400 µg/mL [3] | mortality at 200 ppm [4] | mortality at 400 ppm ([4]; rate 400 ppm) | mortality at 12 ppm [5] | mortality at 24 ppm ([5]; CRW rate 24.00 ppm) | pest or weed control at 400 µg/mL [6] | pest or weed control at 400 µg/mL [7] | pest or weed control at 400 µg/mL [8] | mortality at 200 ppm [9] | mortality at 400 ppm ([9]; rate 400 ppm) | MA results (percent mortality) ([2]; rate 400 ppm) | SAW results (percent mortality) ([4]; rate 400 ppm) | CRW results (percent mortality) ([5]; CRW rate 24.00 ppm) | SM results (percent mortality) ([9]; rate 400 ppm) |
| --- | --- | --- | --- | --- | --- | --- | --- | --- | --- | --- | --- | --- | --- | --- | --- | --- | --- |
| Cc1oc2ncnc(NCC(Cc3ccc(F)cc3)c3ccc(Cl)cc3)c2c1C (stereo not drawn) [Example 26, N-[2-(4-chlorophenyl)-3-(4-fluorophenyl)propyl]-5,6-dimethylfuro[2,3-d]pyrimidin-4-amine] | 0 to 19% | 0% | 0% | 0 to 19% | 0% | 0% | 0% | 0% | 0 to 19% | 0 to 19% | 0 to 19% | 0% | 0% | – | – | – | – |
| COc1ccc(CCNc2ncnc3oc(C)c(C)c23)cc1 [Example 1, N-[2-(4-methoxyphenyl)ethyl]-5,6-dimethylfuro[2,3-d]pyrimidin-4-amine] | 20 to 89% | 80% | 0% | 20 to 89% | 0% | 0% | 0% | 100% | 90 to 100% | 0 to 19% | 0 to 19% | 0% | 0% | – | – | – | – |
| Cc1coc2ncnc(NCCc3ccc4ccccc4c3)c12 [Example 21, 5-methyl-N-[2-(2-naphthyl)ethyl]furo[2,3-d]pyrimidin-4-amine] | 90 to 100% | 100% | 80% | 90 to 100% | 0% | 0% | 100% | 100% | 0 to 19% | 90 to 100% | 0 to 19% | 80% | 60% | – | – | – | – |
| Cc1ccccc1Oc1ncnc2oc(C)c(C)c12 [Example 29, 5,6-dimethyl-4-(2-methylphenoxy)furo[2,3-d]pyrimidine] | 20 to 89% | 0% | 0% | 20 to 89% | 0% | 0% | 0% | 0% | 20 to 89% | 20 to 89% | 0 to 19% | 0% | 0% | – | – | – | – |
| CCCCOc1ccc(CCOc2ncnc3oc(C)cc23)cc1 [Example 44, 4-[4-(4-butoxyphenyl)ethoxy]-6-methylfuro[2,3-d]pyrimidine] | 20 to 89% | – | 0% | 90 to 100% | – | 0% | – | 0% | 0 to 19% | 0 to 19% | 0 to 19% | – | 0% | – | – | – | – |
| Cc1oc2ncnc(OCCc3ccc(C(C)(C)C)cc3)c2c1C [Example 50, 4-[2-[4-(t-butyl)phenyl]ethoxy]-5,6-dimethylfuro[2,3-d]pyrimidine] | 20 to 89% | 0% | 100% | 20 to 89% | 0% | 0% | 0% | 0% | 20 to 89% | 20 to 89% | 0 to 19% | 0% | 100% | – | – | – | – |
| Cc1oc2ncnc(NCCc3ccc(OCC(F)(F)F)cc3)c2c1C [Example 73, 5,6-dimethyl-N-[2-[4-(2,2,2-trifluoroethoxy)phenyl]ethyl]furo[2,3-d]pyrimidin-4-amine] | 20 to 89% | – | 90% | 20 to 89% | – | 100% | – | 0% | 0 to 19% | 0 to 19% | 0 to 19% | – | 0% | – | – | – | – |
| Cc1oc2ncnc(NCCc3ccc4ccccc4c3)c2c1C [Example 22, 5,6-dimethyl-N-[2-(2-naphthyl)ethyl]furo[2,3-d]pyrimidin-4-amine] | 0 to 19% | 0% | 0% | 0 to 19% | 0% | 0% | 0% | 0% | 0 to 19% | 0 to 19% | 0 to 19% | 0% | 0% | – | – | – | – |
| Cc1oc2ncnc(NCCc3ccc(OC(F)(F)F)cc3)c2c1C [Example 68, 5,6-dimethyl-N-[2-[4-(trifluoromethoxy)phenyl]ethyl]furo[2,3-d]pyrimidin-4-amine] | 90 to 100% | – | 90% | 20 to 89% | – | 100% | – | 0% | 90 to 100% | 20 to 89% | 0 to 19% | – | 30% | – | – | – | – |
| CCCCCCOc1ccc(CC(CNc2ncnc3oc(C)c(C)c23)c2cccc3ccccc23)cc1 (stereo not drawn) [Example 71, 5,6-dimethyl-N-[3-[4-(n-hexyloxy)phenyl]-2-(1-naphthyl)propyl]furo[2,3-d]pyrimidin-4-amine] | 0 to 19% | – | 0% | 0 to 19% | – | 0% | – | 0% | 0 to 19% | 0 to 19% | 0 to 19% | – | 0% | – | – | – | – |
| Cc1oc2ncn(CCc3cccc(C(F)(F)F)c3)c(=N)c2c1C [Example 81, 3-[2-[3-(trifluoromethyl)phenyl]ethyl]-5,6-dimethylfuro[2,3-d]pyrimidin-4(3H)-imine] | 90 to 100% | – | 0% | 90 to 100% | – | 0% | – | 0% | 90 to 100% | 20 to 89% | 0 to 19% | – | 0% | 0% | 0% | 0% | 0% |
| Cc1oc2ncnc(OCCc3ccc(C(F)(F)F)cc3)c2c1C [Example 54] | 0 to 19% | 100% | 40% | 90 to 100% | 0% | 40% | 0% | 0% | 90 to 100% | 90 to 100% | 0 to 19% | 100% | 60% | – | – | – | – |
| COc1ccc(CCOc2ncnc3oc(C)c(C)c23)cc1 [Example 52, 4-[2-(4-methoxyphenyl)ethoxy]-5,6-dimethylfuro[2,3-d]pyrimidine] | 90 to 100% | 80% | 100% | 90 to 100% | 0% | 0% | 0% | 0% | 90 to 100% | 90 to 100% | 0 to 19% | 0% | 0% | – | – | – | – |
